The source of these data is article PMC10530720, “Antimicrobial Activity and Toxicity of Newly Synthesized 4-[4-(benzylamino)butoxy]-9H-carbazole Derivatives” (International Journal of Molecular Sciences, 2023).

Series [1] deals with Aspergillus flavus ATCC 9643. The experiment in a line: Broth microdilution (CLSI), growth, MIC and MFC. The series is classed as cell-based. The settings on record: for MBC/MFC: A. flavus (MFC); for MIC: Aspergillus flavus, ATCC9643, A. flavus, 48 h at 37 °C. (In broth dilution the organism is exposed to a series of concentrations in liquid medium.)
For series [2], the system named is Candida albicans ATCC 10231. The experiment in a line: Broth microdilution (CLSI), growth, MIC and MFC. The series is classed as cell-based. The settings on record: for MBC/MFC: C. albicans (MFC); for MIC / inhibition at 64 µg/mL: Candida albicans; for MIC: ATCC10231, C. albicans, 48 h at 37 °C; for inhibition at 64 µg/mL: ATCC10231, 64 µg/mL (highest tested concentration), read-out: C. albicans growth inhibition.

Series [3] relates to Staphylococcus aureus ATCC 29213. The experiment in a line: Broth microdilution (CLSI), growth, MIC and MBC. The note with it: for MIC / inhibition at 16 µg/mL: Staphylococcus aureus; for MIC: ATCC29213, S. aureus, 24 h at 37 °C; for MBC/MFC: S. aureus (MBC); for inhibition at 16 µg/mL: ATCC29213, 16 µg/mL, read-out: inhibition of S. aureus growth. The format is cell-based.
In series [4] the test system is Staphylococcus epidermidis ATCC 12228. The experiment in a line: Broth microdilution (CLSI), growth, MIC and MBC. The note with it: for MIC: Staphylococcus epidermidis, ATCC12228, S. epidermidis, 24 h at 37 °C; for MBC/MFC: S. epidermidis (MBC). The format is cell-based.
Series [5] deals with Escherichia coli ATCC 25922. The experiment in a line: Broth microdilution (CLSI), growth, MIC and MBC. The format is cell-based. The settings on record: for MBC/MFC: E. coli (MBC); for MIC: Escherichia coli, ATCC25922, E. coli, 24 h at 37 °C; for antimicrobial properties against E. coli, ranking in words: among compounds 1–10.
Series [6] has as its system Pseudomonas aeruginosa ATCC 15442. In words: Broth microdilution (CLSI), growth, MIC and MBC. The series is classed as cell-based. The note with it: for MBC/MFC: P. aeruginosa (MBC); for MIC: Pseudomonas aeruginosa, ATCC15442, P. aeruginosa, 24 h at 37 °C.
The subject of series [7] is human fibroblast BJ ATCC CRL-2522 cell line. In words: Cytotoxic activity, MTT. The series is classed as cell-based. The note with it: for toxicity to human fibroblasts, ranking in words: among compounds 1–10. The protocol:
The cytotoxic properties of the tested compounds were examined using the human fibroblast BJ ATCC CRL-2522 cell line. The fibroblasts, with a final density of 1 × 10^5 cells per well, were suspended in EMEM medium containing FBS (10%) and antibiotics (penicillin, 100 IU/mL and streptomycin, 100 µg/mL), and incubated in 96-well microplates for 24 h in a humidified atmosphere with 5% CO2 at 37 °C. Next, the EMEM medium was replaced with a fresh medium, with the addition of the tested compounds in the concentration range of 1–64 µg/mL. Cell cultures without the tested derivatives were also prepared, as control samples. All the samples were incubated again for 24 h, under the same conditions. Then, the growth medium was removed from above the fibroblasts, and MTT solution (500 µg/mL) was added to each well. The plates were incubated for 4 h under the same conditions. The MTT solution was removed, and the wells were refilled with 50 µL of DMSO, to dissolve the formazan crystals produced. The spectrophotometric measurement of the samples was carried out at λ = 550 nm, using a SpectraMax i3x Multi-Mode Microplate Reader (Molecular Devices Ltd., Wokingham, UK).
The cell viability was calculated as a percentage of the control samples untreated with the tested compounds with a standard deviation. The experiment with n = 4 was carried out in four independent repetitions.

≈ marks a conversion by molar mass, not a printed value.

One may read the MIC as the lowest concentration that inhibits growth of the organism. Low values mean a more susceptible organism, high ones a less susceptible organism. Consider `C[C@@H]1[C@H](O)[C@@H](C)/C=C/C=C/C=C/C=C/C=C/C=C/C=C/[C@H](O[C@@H]2O[C@H](C)[C@@H](O)[C@H](N)[C@@H]2O)C[C@@H]2O[C@](O)(C[C@@H](O)C[C@@H](O)[C@H](O)CC[C@@H](O)C[C@@H](O)CC(=O)O[C@H]1C)C[C@H](O)[C@H]2C(=O)O` [Amphotericin B, reference compound], for which the MBC/MFC in series [1] turned out to be 16 µg/mL (≈ 17.3 µM); in series [2], 1 µg/mL (≈ 1.08 µM). Also, the MIC in series [1] was 4 µg/mL (≈ 4.33 µM); in series [2], 1 µg/mL (≈ 1.08 µM).
For orientation: melting point means the temperature of the solid-liquid transition. Consider `Fc1ccccc1CNCCCCOc1cccc2[nH]c3ccccc3c12` [Compound 1, 4-[4-(2-fluorophenylmethylamino)butoxy]-9H-carbazole], for which the melting point fell in the range of 179 to 181 °C. The compound also displayed an MIC in series [3] of 64 µg/mL (≈ 177 µM). The compound also displayed an MIC in series [4] of 64 µg/mL (≈ 177 µM). In series [5], the MBC/MFC is reported as more than 64 µg/mL and the MIC was more than 64 µg/mL. In series [6], the MBC/MFC was more than 64 µg/mL and the MIC is more than 64 µg/mL. Besides, in series [1], the MBC/MFC is on record as more than 64 µg/mL and the MIC is more than 64 µg/mL. In series [2], this compound returned an MBC/MFC of more than 64 µg/mL and an MIC of more than 64 µg/mL. Moreover, the “reduction of cell viability” value in series [7] (32 µg/mL, human fibroblasts, 24 h) is on record as “about 60%”. Also, the “toxicity to human fibroblasts, ranking in words” value in series [7] is “least toxic”.
Broadly, the inhibition is the relative decrease from the control value, in per cent. Take `Fc1cccc(CNCCCCOc2cccc3[nH]c4ccccc4c23)c1` [Compound 2, 4-[4-(3-fluorophenylmethylamino)butoxy]-9H-carbazole]: the MBC/MFC is 32 µg/mL (≈ 88.3 µM) in series [3]; 32 µg/mL (≈ 88.3 µM) in series [4]; more than 64 µg/mL in series [5]; more than 64 µg/mL in series [6]; more than 64 µg/mL in series [1]; more than 64 µg/mL in series [2]. Also, in series [3], the inhibition at 16 µg/mL is more than 60%. The MIC in series [3] was 32 µg/mL (≈ 88.3 µM); in series [4], 32 µg/mL (≈ 88.3 µM); in series [5], more than 64 µg/mL; in series [6], more than 64 µg/mL; in series [1] it was more than 64 µg/mL; in series [2] it was more than 64 µg/mL. Also, the inhibition at 64 µg/mL in series [2] was approximately 60%.
Take `Fc1ccc(CNCCCCOc2cccc3[nH]c4ccccc4c23)cc1` [Compound 3, 4-[4-(4-fluorophenylmethylamino)butoxy]-9H-carbazole]: the MIC is 32 µg/mL (≈ 88.3 µM) in series [3]; 32 µg/mL (≈ 88.3 µM) in series [4]; more than 64 µg/mL in series [5]; more than 64 µg/mL in series [6]; more than 64 µg/mL in series [1]; more than 64 µg/mL in series [2]. In addition, the MBC/MFC in series [5], in series [6], in series [1] and in series [2] was more than 64 µg/mL throughout. For the same compound, the “antimicrobial properties against E. coli, ranking in words” value (from here on “antimicrobial properties against E. coli”) in series [5] was “strongest antimicrobial properties”.
For the compound `C[C@@H](NCCCCOc1cccc2[nH]c3ccccc3c12)c1ccccc1` [Compound 4, (R)-4-[4-(1-phenylethylamino)butoxy]-9H-carbazole], the MBC/MFC in series [3] is recorded as 32 µg/mL (≈ 89.3 µM); in series [4] it was 32 µg/mL (≈ 89.3 µM); in series [5] it was more than 64 µg/mL; in series [6], more than 64 µg/mL; in series [1], more than 64 µg/mL; in series [2] it was more than 64 µg/mL. The inhibition at 16 µg/mL in series [3] was more than 60%. Besides, the MIC in series [3] was 32 µg/mL (≈ 89.3 µM); in series [4], 32 µg/mL (≈ 89.3 µM); in series [5], more than 64 µg/mL; in series [6] it was more than 64 µg/mL; in series [1], more than 64 µg/mL; in series [2] it was more than 64 µg/mL.
With `C[C@H](NCCCCOc1cccc2[nH]c3ccccc3c12)c1ccccc1` [Compound 5, (S)-4-[4-(1-phenylethylamino)butoxy]-9H-carbazole], the MBC/MFC in series [3] is 64 µg/mL (≈ 179 µM); in series [4] it was 64 µg/mL (≈ 179 µM); in series [5], more than 64 µg/mL; in series [6] it was more than 64 µg/mL; in series [1] it was more than 64 µg/mL; in series [2], more than 64 µg/mL. Besides, the minimum inhibitory concentration (MIC) in series [3] was 32 µg/mL (≈ 89.3 µM); in series [4], 32 µg/mL (≈ 89.3 µM); in series [5] it was more than 64 µg/mL; in series [6] it was more than 64 µg/mL; in series [1], more than 64 µg/mL; in series [2] it was more than 64 µg/mL.
Take `Br.Fc1ccccc1CNCCCCOc1cccc2[nH]c3ccccc3c12` [Compound 6, 4-[4-(2-fluorophenylmethylamino)butoxy]-9H-carbazole hydrobromide]: the melting point is 180 to 182 °C. This compound also showed an MIC in series [3] of 64 µg/mL. In series [4], this compound registered an MIC of 64 µg/mL. Further, in series [5], the MBC/MFC was more than 64 µg/mL; the MIC is more than 64 µg/mL; the “antimicrobial properties against E. coli” value is recorded as “weakest antimicrobial activity”. In series [6], this compound yielded an MBC/MFC of more than 64 µg/mL and an MIC of more than 64 µg/mL. In series [1], this compound came in with an MBC/MFC of more than 64 µg/mL and an MIC of more than 64 µg/mL. In addition, in series [2], the MBC/MFC was more than 64 µg/mL, the inhibition at 64 µg/mL stood at 15% and the MIC is more than 64 µg/mL.
Regarding `Br.Fc1cccc(CNCCCCOc2cccc3[nH]c4ccccc4c23)c1` [Compound 7, 4-[4-(3-fluorophenylmethylamino)butoxy]-9H-carbazole hydrobromide], the melting point was 181 to 183 °C. Further, in series [3], the MBC/MFC is reported as 64 µg/mL and the MIC amounted to 32 µg/mL. In series [4], this compound had an MBC/MFC of 64 µg/mL and an MIC of 32 µg/mL. In addition, in series [5], the MBC/MFC is recorded as more than 64 µg/mL and the MIC was more than 64 µg/mL. Also, in series [6], the MBC/MFC is recorded as more than 64 µg/mL and the MIC was more than 64 µg/mL. In series [1], this compound had an MBC/MFC of more than 64 µg/mL and an MIC of more than 64 µg/mL. In series [2], the MBC/MFC is reported as more than 64 µg/mL and the MIC is more than 64 µg/mL.
`Br.Fc1ccc(CNCCCCOc2cccc3[nH]c4ccccc4c23)cc1` [Compound 8, 4-[4-(4-fluorophenylmethylamino)butoxy]-9H-carbazole hydrobromide] yielded a melting point of 203 to 206 °C. For the same compound, in series [3], the MBC/MFC is 64 µg/mL, the inhibition at 16 µg/mL stood at 65% and the MIC was determined as 32 µg/mL. Further, in series [4], the MBC/MFC was determined as 64 µg/mL and inhibition of growth (MIC) required 32 µg/mL. In series [5] (64 µg/mL (highest tested concentration)), the “reduction in E. coli growth” value stood at 50%. In series [5], the MBC/MFC is recorded as more than 64 µg/mL; the MIC was more than 64 µg/mL; the “antimicrobial properties against E. coli” value is “strongest antimicrobial properties”. In addition, in series [6], the MBC/MFC was more than 64 µg/mL and the MIC is more than 64 µg/mL. Besides, in series [1], the MBC/MFC was more than 64 µg/mL and the MIC is more than 64 µg/mL. In series [2], this compound had an MBC/MFC of more than 64 µg/mL and an MIC of more than 64 µg/mL.
On to `Br.C[C@@H](NCCCCOc1cccc2[nH]c3ccccc3c12)c1ccccc1` [Compound 9, (R)-4-[4-(1-phenylethylamino)butoxy]-9H-carbazole hydrobromide], for which the melting point is 92 to 96 °C. Moreover, in series [3], the MBC/MFC was found to be 64 µg/mL and the MIC stood at 32 µg/mL. In series [4], this compound had an MBC/MFC of 64 µg/mL and an MIC of 32 µg/mL. In series [5], this compound came in with an MBC/MFC of more than 64 µg/mL and an MIC of more than 64 µg/mL. In addition, in series [6], the MBC/MFC is more than 64 µg/mL and the MIC was more than 64 µg/mL. Besides, in series [1], the MBC/MFC is more than 64 µg/mL and the MIC was more than 64 µg/mL. In series [2], the MBC/MFC is more than 64 µg/mL and the minimum inhibitory concentration (MIC) was more than 64 µg/mL. Also, the “decrease in cell viability” value in series [7] (4 µg/mL, human fibroblasts, 24 h) worked out at 40%. Besides, the “toxicity to human fibroblasts, ranking in words” value in series [7] was “highest toxicity”.
`Br.C[C@H](NCCCCOc1cccc2[nH]c3ccccc3c12)c1ccccc1` [Compound 10, (S)-4-[4-(1-phenylethylamino)butoxy]-9H-carbazole hydrobromide]: the MBC/MFC in series [3] is 64 µg/mL; in series [4], 64 µg/mL; in series [5], more than 64 µg/mL; in series [6] it was more than 64 µg/mL; in series [1], more than 64 µg/mL; in series [2], more than 64 µg/mL. The MIC in series [3] is 32 µg/mL; in series [4], 32 µg/mL; in series [5], more than 64 µg/mL; in series [6], more than 64 µg/mL; in series [1], more than 64 µg/mL; in series [2] it was more than 64 µg/mL.
